Data on six compounds can be found in PMC7466261, “In Silico and In Vitro Analysis of Multifunctionality of Animal Food-Derived Peptides” (Foods, 2020).

Read-outs that look alike come from different tables or passages of the source. Where a SMILES comes first, the peptide text is derived from it. Where no end group is shown, it is not given here.

On the set-up of data set [1]: method as in PMID 10908049. To be noted: BIOPEP-UWM; cited from earlier work.
The nature of data set [2]: Oxygen radical absorbance capacity (ORAC)-FL assay. The settings on record: mean ± SD. As for the experimental part:
An oxygen radical absorbance capacity (ORAC)-FL assay was used based on the protocol previously optimized. The reaction was performed at 37 °C in 75 mM phosphate buffer (pH 7.4). The final assay mixture volume was 200 µL, containing 70 nM FL, 12 mM AAPH, and antioxidant [(Trolox, 1–8 µM) or sample (at different concentrations)]. Fluorescence was measured during 137 min in a FLUOstar OPTIMA plate reader (BMG Labtech) with 485 nm excitation and 520 nm emission filters. The equipment was controlled by the FLUOstar Control ver. 1.32 R2 software for fluorescence measurement. Samples were analyzed in triplicate. The final ORAC-FL value was expressed as μmol Trolox equivalents (TE) per μmol peptide.

The target of data set [3] is T1, angiotensin-converting enzyme (ACE) (Oryctolagus cuniculus, UniProt P12822).
T1 sequence (P12822 34-1310): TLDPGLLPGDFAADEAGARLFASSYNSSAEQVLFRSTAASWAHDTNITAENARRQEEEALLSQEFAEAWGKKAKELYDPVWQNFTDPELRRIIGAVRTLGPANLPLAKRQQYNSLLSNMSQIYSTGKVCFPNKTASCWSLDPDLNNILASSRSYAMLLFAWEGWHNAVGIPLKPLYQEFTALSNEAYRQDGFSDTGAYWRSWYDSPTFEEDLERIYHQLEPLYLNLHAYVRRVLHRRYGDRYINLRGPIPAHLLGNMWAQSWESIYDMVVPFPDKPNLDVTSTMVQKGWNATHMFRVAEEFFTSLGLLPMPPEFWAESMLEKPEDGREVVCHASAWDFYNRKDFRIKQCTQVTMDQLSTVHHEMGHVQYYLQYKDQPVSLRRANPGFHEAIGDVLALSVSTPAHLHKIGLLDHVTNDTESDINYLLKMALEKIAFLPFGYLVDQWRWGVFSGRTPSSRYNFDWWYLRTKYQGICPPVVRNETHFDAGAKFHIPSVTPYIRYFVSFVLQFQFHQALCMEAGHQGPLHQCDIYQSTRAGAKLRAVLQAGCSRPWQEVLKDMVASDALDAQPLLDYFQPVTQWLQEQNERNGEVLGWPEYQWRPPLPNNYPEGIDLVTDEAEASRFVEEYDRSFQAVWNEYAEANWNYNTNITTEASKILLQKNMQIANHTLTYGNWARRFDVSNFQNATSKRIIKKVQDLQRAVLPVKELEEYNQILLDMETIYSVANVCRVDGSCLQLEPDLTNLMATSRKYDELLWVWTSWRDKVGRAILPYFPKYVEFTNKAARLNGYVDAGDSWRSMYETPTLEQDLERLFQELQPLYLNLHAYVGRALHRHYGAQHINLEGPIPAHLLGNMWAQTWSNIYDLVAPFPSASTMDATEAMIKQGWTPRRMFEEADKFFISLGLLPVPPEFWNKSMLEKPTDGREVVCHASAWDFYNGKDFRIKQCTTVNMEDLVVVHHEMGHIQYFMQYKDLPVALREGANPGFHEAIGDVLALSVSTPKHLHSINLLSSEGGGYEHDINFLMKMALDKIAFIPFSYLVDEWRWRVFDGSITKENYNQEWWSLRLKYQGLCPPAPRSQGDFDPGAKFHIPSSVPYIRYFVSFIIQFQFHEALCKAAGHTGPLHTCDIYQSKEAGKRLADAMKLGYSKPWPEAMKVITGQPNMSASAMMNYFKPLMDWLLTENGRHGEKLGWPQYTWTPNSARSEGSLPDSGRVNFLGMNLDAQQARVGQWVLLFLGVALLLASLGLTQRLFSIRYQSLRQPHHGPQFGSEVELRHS
Put plainly: ACE-inhibitory activity, fluorescence assay with Abz-Gly-Phe(NO2)-Pro. In kind it is biochemical. As for the experimental part:
ACE (1 U/mL) was diluted (0.04 U/mL) in 150 mM Tris buffer containing 0.1 μM ZnCl2 (pH 8.3). Forty microliters of sample (or MilliQ water for blank and control) were added to a black multi-well plate (Porvair, Leatherhead, UK). Then, 40 μL of ACE were added, and the reaction started after the addition of 160 μL of the substrate. The plate was incubated at 37 °C for 30 min, and the fluorescence was measured in a FLUOstar OPTIMA plate reader (BMG Labtechnologies GmbH, Offenburg, Germany) with 320 nm excitation and 420 nm emission filters.

The nature of another data set: ABTS assay (TEAC). The settings on record: mean ± SD. As for the experimental part: Antioxidant activity was measured using a previously optimized method with some modifications. A mixture of 7 mM ABTS stock solution and 2.45 mM potassium persulfate was kept in the dark at room temperature for 12-16 h to form the ABTS radical cation (ABTS^•+). The ABTS^•+ solution was diluted in 5 mM of phosphate buffer solution (PBS) (pH 7.4) to an absorbance of 0.70 ± 0.02 at 734 nm at 30 °C. Two mL of diluted ABTS^•+ solution were mixed with 20 μL of sample or Trolox (0–0.015 μmol), and the absorbance was recorded at 734 nm after 10 min incubation at 30 °C. The Trolox equivalent antioxidant capacity (TEAC) value was expressed as μmol TE per μmol peptide. Each sample was analyzed in triplicate.

The next data set relates to murine splenocytes. Also on record: method as in doi:10.1016/j.idairyj.2010.02.013. The settings on record: MBPDB; cited from earlier work.
In data set [4] the target is T1, angiotensin-converting enzyme (ACE). The settings on record: BIOPEP-UWM; read-out: ACE inhibitory IC50; cited from earlier work.
The test system of another data set is mucin secretion. To be noted: MBPDB; cited from earlier work.
Data set [5] concerns the target opioid, (3H)-naloxone binding. To be noted: database value; read-out: Opioid agonist IC50, inhibition of (3H)-naloxone binding; cited from earlier work.
On the set-up of data set [6]: method as in doi:10.1007/s13594-015-0226-5. The settings on record: MBPDB; cited from earlier work.
The test system of a further data set is macrophages RAW264.7. To be noted: RAW264.7 stimulated with 0.25 mM t-BOOH, pre-treated with 25 µM; stimulated cells alone 70.97%.
The test system of another data set is Caco-2 cells. Kind of data set: Cell viability (MTT), direct effects, Caco-2. Type of data set: cell-based, human. To be noted: Caco-2, 1–100 µM, 24 h. As for the experimental part:
(§1) Cell viability was determined using the MTT assay. […] Samples were analyzed in triplicate.

The test system of another data set is RAW264.7 cells. Kind of data set: Cell viability (MTT), direct effects, RAW264.7. Type of data set: cell-based, mouse. The settings on record: RAW264.7, 1–100 µM, 24 h. As for the experimental part:
as §1

For data set [7], the target named is dipeptidyl peptidase IV (DPP-IV). The settings on record: MBPDB; read-out: Antidiabetic IC50, DPP-IV inhibition; cited from earlier work.
[8] abbreviates: highest peptide concentration analyzed 1000 µM, read-out: ACE Inhibitory Activity (IC50-µM), symbol.

Method for macrophages RAW264.7: The human colorectal adenocarcinoma Caco-2 and the mouse macrophage RAW 264.7 cell lines were obtained from the American Type Culture Collection (ATCC, Rockville, MD, USA). Caco-2 and RAW264.7 cells were grown in High-Glucose DMEM supplemented with 10% (v:v) FBS, 1% (v:v) penicillin/streptomycin/amphotericin B, and 1% (v:v) non-essential amino acids solution. Cells were maintained in plastic 75-cm^2 culture flasks at 37 °C in a humidified incubator containing 5% CO2 and 95% air.
Cells were incubated for 24 h with various concentrations of selected synthetic peptides. To evaluate both the direct and protective effects against oxidative stress, the incubation period was followed by 1.5 h-treatment with culture medium or tert-butyl hydroperoxide (t-BOOH, 1 mM for Caco-2 cells and 0.25 mM for RAW264.7 cells), respectively, and different biomarkers were evaluated.
Cell viability was determined using the MTT assay. Caco-2 and RAW264.7 cells were seeded onto 96-well plates (Corning Costar Corp., Corning, NY, USA) at a density of 1.0 × 10^4 cells/cm^2 and incubated for 9 days and 24 h, respectively. […] The supernatant was aspirated, the formazan crystals were solubilized in DMSO:ethanol (1:1, v:v), and the absorbance was measured at 570 nm in a FLUOstar OPTIMA plate reader (BMG Labtech). Results were expressed as percentage of the control, considered as 100%. Samples were analyzed in triplicate.

A word on the IC50: it is the point on the concentration scale where inhibition reaches its midpoint. Consider `C[C@@H](O)[C@H](NC(=O)[C@H](Cc1c[nH]c2ccccc12)NC(=O)[C@@H]1CCCN1)C(=O)O` [PWT] (H-Pro-Trp-Thr-OH; N-terminus and C-terminus assumed), for which the “Linoleic acid peroxidation (antioxidant)” value in [1] is “Inhibition of linoleic acid peroxidation *”. The “Antioxidant Activity ORAC” value in [2] came to 2.15 ± 0.07 µmol TE/µmol peptide. The half-maximal inhibitory concentration (IC50) in data set [3] (setting [8]) is greater than 1000 µM. In the data set “ABTS assay (TEAC)”, the “Antioxidant Activity TEAC” value is reported as 0.73 ± 0.07 µmol TE/µmol peptide.

Turning to “YLLF (UniProt P02754 118-121, looked up, fragment) [synthetic peptide, β-Lg f(102–105)]”, the “Stimulation of murine splenocytes (listed as cytotoxic)” value in the data set on murine splenocytes was “Stimulation of murine splenocytes **”. In addition, the results for the IC50 in data set [4] and in data set [5] were 172 µM and 160 µM, respectively. Further, in data set [2], the “Antioxidant Activity ORAC” value is on record as 0.91 ± 0.04 µmol TE/µmol peptide. Besides, in the data set on mucin secretion, the “Mucin secretion (opioid agonist)” value is “Stimulation of mucin secretion **”. Also, the “Antioxidant Activity TEAC” value in “ABTS assay (TEAC)” is 1.96 ± 0.30 µmol TE/µmol peptide.

For `CC(C)C[C@H](NC(=O)[C@H](CC(C)C)NC(=O)[C@@H](N)Cc1ccc(O)cc1)C(=O)O` [YLL] (H-Tyr-Leu-Leu-OH; N-terminus and C-terminus assumed), the “Antioxidant Activity ORAC” value in data set [2] was found to be 0.78 ± 0.03 µmol TE/µmol peptide. The IC50 in data set [3] (mean ± SD, read-out: ACE Inhibitory Activity (IC50-µM)) came to 518.5 ± 3.5 µM. Besides, the FRAP entry in data set [6] was “FRAP = 81.76 mmol Fe/mol peptide **”. Besides, in “ABTS assay (TEAC)”, the “Antioxidant Activity TEAC” value came out at 2.55 ± 0.29 µmol TE/µmol peptide.

`CC(C)C[C@H](NC(=O)CNC(=O)[C@@H](N)Cc1ccc(O)cc1)C(=O)N[C@@H](Cc1ccccc1)C(=O)O` [YGLF] (H-YGLF-OH; N-terminus and C-terminus assumed): the IC50 is 733 µM in [4], greater than 1000 µM in data set [3] (setting [8]) and 300 µM in data set [5]. In [2], the “Antioxidant Activity ORAC” value came out at 0.89 ± 0.01 µmol TE/µmol peptide. Further, the “Antioxidant Activity TEAC” value in “ABTS assay (TEAC)” amounted to 2.08 ± 0.06 µmol TE/µmol peptide.

Take `C[C@@H](O)[C@H](NC(=O)[C@H](Cc1c[nH]c2ccccc12)NC(=O)[C@@H]1CCCN1C(=O)[C@@H](N)Cc1ccc(O)cc1)C(=O)O` [YPWT] (H-YPWT-OH): the “Percentage of viable cells (% control)” value in the data set with macrophages RAW264.7 came out at 79.58%. Besides, the “Cell viability, direct effect” value with Caco-2 cells and in the data set with RAW264.7 cells was “did not evoke changes in cell viability” in each case. Further, the IC50 in [3] (setting [8]) is greater than 1000 µM.

YPFPGPIPN: in [2], the “Antioxidant Activity ORAC” value was 1.26 ± 0.06 µmol TE/µmol peptide. Moreover, in data set [7], the half-inhibitory concentration (IC50) was 6.7 µM. Further, the “Antioxidant Activity TEAC” value in “ABTS assay (TEAC)” is listed as 1.22 ± 0.17 µmol TE/µmol peptide.
